Laboratory results reported in US7700608B2, “Quinazoline derivatives and their use in the treatment of thrombocythemia” (Shire Holdings AG, priority 2004, dated 2010).

Legend:
[1] = tested on: non-megakaryocytic cells (CD61-); assay: Growth of non-megakaryocytic (CD61-) cells in the TPO-stimulated CD34+ cultures; format: cell-based; details: 12-day cultures, FIG. 2
Procedure: (§1) Cell culture and drug regimes. Cord blood CD34+ cells were purchased from Biowhittacker USA or were freshly isolated by immunomagnetic selection using standard laboratory procedures. Cells were seeded in 24-well tissue culture plates at a density of 0.15×10^6 cells/ml and cultured for 12-14 days in Iscove's modified Dulbecco's medium containing 40 ng/ml TPO (as described in Mathur A, Hong Y. Martin J F, Erusalimsky J D (2001) Megakaryocytic differentiation is accompanied by a reduction in cell migratory potential. Br J Haematol 112:459) with anagrelide, Compound #1, or vehicle (DMSO).
(§2) Cell counting. Cell density was determined using a Sysmex CDA-500 Particle Analyzer.
(§3) Analysis of megakaryocytic differentiation. CD61 expression (a marker of megakaryocytic differentiation) was quantified by flow cytometry using an anti-GPIIIa antibody. Cell diameter was determined using a Sysmex CDA-500 Particle Analyzer.
To assess whether the inhibitory activities of anagrelide and Compound #1 in these cultures were selective for the megakaryocytic lineage, the effects of these compounds were evaluated on the growth of the non-megakaryocytic cells. In 12-day control cultures these cells (CD61-) represent 20-30% of the total population.

Cord blood CD34+ cells = assay: TPO-induced megakaryocytic maturation/differentiation of cord blood CD34+ cells in culture; format: cell-based; details: for inhibition at 0.03 µM: 30 nM, CD34+ cells grown with TPO in plasma-containing medium, vs. control, read-out: inhibition of megakaryocytic maturation (percentage of GPIIIa positive cells); for Cell expansion % of control / GPIIIa expression median fluorescence % of control / GPIIIa positive cells % of control / Relative cell size % of control: 1.0 μM, 12 days, plasma-containing medium with TPO, mean ± SE, n = 4; for concentration giving maximal effect on megakaryocyte maturation / IC50: TPO-induced maturation, FIG. 1; for IC50: mean of 2-4 independent experiments, read-out: IC50 against megakaryocyte maturation
Procedure: Chemicals. Compound #1 was kept at room temperature. Stock solutions (10 mM) were made in DMSO, or PBS pH 5. 0, as indicated. Stock solutions were diluted in culture medium immediately before addition to cell suspensions.
as §1, §2, §3

O=C1CN2Cc3c(ccc(Cl)c3Cl)N=C2N1 [Anagrelide]
effect on growth of non-megakaryocytic cells (selectivity for megakaryocytic lineage) [1]: neither anagrelide nor Compound #1 inhibited the growth of non-megakaryocytic cells
inhibition at 0.03 µM (Cord blood CD34+ cells): 28%
Cell expansion % of control (Cord blood CD34+ cells): 48.0 ± 4.0 % of control
GPIIIa expression median fluorescence % of control (Cord blood CD34+ cells): 51.3 ± 11.9 % of control
GPIIIa positive cells % of control (Cord blood CD34+ cells): 41.9 ± 6.6 % of control
Relative cell size % of control (Cord blood CD34+ cells): 80.4 ± 4.5 % of control
concentration giving maximal effect on megakaryocyte maturation (Cord blood CD34+ cells): 1 µM
IC50 (Cord blood CD34+ cells): 110 to 130 nM

O=CC(=O)NC1=Nc2ccc(Cl)c(Cl)c2CN1 [Compound #1, N-(5,6-dichloro-3,4-dihydroquinazolin-2-yl)-2-oxoacetamide]
effect on growth of non-megakaryocytic cells (selectivity for megakaryocytic lineage) [1]: neither anagrelide nor Compound #1 inhibited the growth of non-megakaryocytic cells
inhibition at 0.03 µM (Cord blood CD34+ cells): 20%
Cell expansion % of control (Cord blood CD34+ cells): 45.8 ± 3.9 % of control
GPIIIa expression median fluorescence % of control (Cord blood CD34+ cells): 54.4 ± 14.7 % of control
GPIIIa positive cells % of control (Cord blood CD34+ cells): 34.5 ± 4.4 % of control
Relative cell size % of control (Cord blood CD34+ cells): 78.7 ± 5.3 % of control
concentration giving maximal effect on megakaryocyte maturation (Cord blood CD34+ cells): 1 µM
IC50 (Cord blood CD34+ cells): 110 to 130 nM
